According to ChEMBL document CHEMBL1136988, “1-amino-4-benzylphthalazines as orally bioavailable smoothened antagonists with antitumor activity” (J Med Chem, 2009):

Assays:
Mus musculus [1] = assay: Toxicity in mouse Ptch+/- p53-/- medulloblastoma cells xenografted Harlan nu/nu mouse assessed as change in body weight at 5 to 40 mg/kg, po bid administered after 7 days tumor implantation measured after 12 days; type: organism-based; set-up: dose 5-40 mg/kg, route oral; details: in vivo, 288 h
Mus musculus [2] = assay: Toxicity in mouse Ptch+/- p53-/- medulloblastoma cells xenografted Harlan nu/nu mouse assessed as change in body weight at 5 to 40 mg/kg, po qd administered after 7 days tumor implantation measured after 12 days; type: organism-based; set-up: dose 5-40 mg/kg, route oral; details: in vivo, 288 h
Mus musculus [3] = assay: Hepatic blood flow in nude mouse at 1 mg/kg, iv; type: ADME, organism-based, Liver; set-up: dose 1 mg/kg, route intravenous; details: in vivo
Medulloblastoma cell [4] = assay: Antitumor activity against mouse Ptch+/- p53-/- medulloblastoma cells xenografted po dosed Harlan nu/nu mouse assessed as tumor regression administered after 7 days tumor implantation measured after 12 days; type: functional, organism-based
Mus musculus [5] = assay: Toxicity in mouse Ptch+/- p53-/- medulloblastoma cells xenografted Harlan nu/nu mouse at 5 to 40 mg/kg, po bid administered after 7 days tumor implantation measured after 12 days; type: organism-based; set-up: dose 5-40 mg/kg, route oral; details: in vivo, 288 h
[6] = AUC (0 to infinity) in nude mouse brain at 5 mg/kg, po after 24 hrs; type: ADME, organism-based; set-up: dose 5 mg/kg, route oral, time infinity
Mus musculus [7] = assay: Total body water content in nude mouse at 1 mg/kg, iv; type: ADME, organism-based; set-up: dose 1 mg/kg, route intravenous; details: in vivo
[8] = AUC (0 to infinity) in nude mouse plasma at 5 mg/kg, po after 24 hrs; type: ADME, organism-based; set-up: time infinity, dose 5 mg/kg, route oral
[9] = Half life in nude mouse plasma at 1 mg/kg, iv after 24 hrs; type: ADME, organism-based; set-up: dose 1 mg/kg, route intravenous
[10] = Cmax in nude mouse brain at 5 mg/kg, po after 24 hrs; type: ADME, organism-based; set-up: dose 5 mg/kg, route oral
Medulloblastoma cell [11] = assay: Inhibition of Gli mRNA expression in mouse medulloblastoma cells after 1 to 24 hrs by RT-PCR; type: functional
[12] = Antitumor activity against mouse Ptch+/- p53-/- medulloblastoma cells xenografted Harlan nu/nu mouse at 5 mg/kg, po bid administered after 7 days tumor implantation measured after 12 days relative to control; type: functional, Medulloblastoma cell
[13] = Ratio of Cmax in brain to Cmax in plasma of nude mouse at 5 mg/kg, po after 24 hrs; type: ADME, organism-based; set-up: dose 5 mg/kg, route oral; details: read-out: Ratio_Cmax_brain/plasma
Mus musculus [14] = assay: Toxicity in mouse Ptch+/- p53-/- medulloblastoma cells xenografted Harlan nu/nu mouse at 5 to 40 mg/kg, po qd administered after 7 days tumor implantation measured after 12 days; type: organism-based; set-up: dose 5-40 mg/kg, route oral; details: in vivo, 288 h
Protein smoothened [15] = target: Protein smoothened (Homo sapiens, UniProt Q99835); assay: Displacement of [3H]3-chloro-4,7-difluoro-N-(4-methoxy-3-(pyridin-4-yl)benzyl)-N-(4-(methylamino)cyclohexyl)benzo[b]thiophene-2-carboxamide from human Smoothened receptor expressed in CHO-K1 cells by membrane filter binding assay; type: cell-based
[16] = Antitumor activity against mouse Ptch+/- p53-/- medulloblastoma cells xenografted Harlan nu/nu mouse assessed as tumor regression at 40 mg/kg, po bid administered after 7 days tumor implantation measured after 12 days; type: functional, Medulloblastoma cell
[17] = Antitumor activity against mouse Ptch+/- p53-/- medulloblastoma cells xenografted Harlan nu/nu mouse at 5 mg/kg, po qd administered after 7 days tumor implantation measured after 12 days relative to control; type: functional, Medulloblastoma cell
[18] = Cmax in nude mouse plasma at 5 mg/kg, po after 24 hrs; type: ADME, organism-based; set-up: dose 5 mg/kg, route oral
[19] = Tmax in nude mouse brain at 5 mg/kg, po after 24 hrs; type: ADME, organism-based; set-up: dose 5 mg/kg, route oral
[20] = AUC (0 to infinity) in nude mouse plasma at 1 mg/kg, iv after 24 hrs; type: ADME, organism-based; set-up: time infinity, dose 1 mg/kg, route intravenous
Protein smoothened [21] = target: T1, Protein smoothened (Mus musculus, UniProt P56726); assay: Inhibition of Smoothened receptor in mouse TM3 cells transfected with pTA-8xGli-Luc reporter gene assessed as inhibition of 1 nM 3-chloro-4,7-difluoro-N-(4-methoxy-3-(pyridin-4-yl)benzyl)-N-(4-(methylamino)cyclohexyl)benzo[b]thiophene-2-carboxamide-induced Hedgehog pathway activation by Gli shift assay; type: cell-based
Medulloblastoma cell [22] = assay: Inhibition of Gli mRNA expression in mouse medulloblastoma cells at 40 mg/kg, po by RT-PCR; type: functional, organism-based; set-up: dose 40 mg/kg; details: TDE = time-dependent effect
[23] = Antitumor activity against mouse Ptch+/- p53-/- medulloblastoma cells xenografted Harlan nu/nu mouse at 10 mg/kg, po qd administered after 7 days tumor implantation measured after 12 days relative to control; type: functional, Medulloblastoma cell
[24] = Antitumor activity against mouse Ptch+/- p53-/- medulloblastoma cells xenografted Harlan nu/nu mouse assessed as tumor regression at 20 mg/kg, po bid administered after 7 days tumor implantation measured after 12 days; type: functional, Medulloblastoma cell
[25] = Oral bioavailability in nude mouse plasma at 5 mg/kg after 24 hrs; type: ADME, organism-based
Protein smoothened [26] = target: T1, Protein smoothened; assay: Displacement of [3H]3-chloro-4,7-difluoro-N-(4-methoxy-3-(pyridin-4-yl)benzyl)-N-(4-(methylamino)cyclohexyl)benzo[b]thiophene-2-carboxamide from mouse Smoothened receptor expressed in CHO-K1 cells by membrane filter binding assay; type: cell-based
Medulloblastoma cell [27] = assay: Inhibition of Gli mRNA expression in mouse medulloblastoma cells at 5 mg/kg, po by RT-PCR; type: functional, organism-based; set-up: dose 5 mg/kg; details: TDE = time-dependent effect
[28] = Clearance in nude mouse plasma at 1 mg/kg, iv after 24 hrs; type: ADME, organism-based; set-up: dose 1 mg/kg, route intravenous
[29] = Volume of distribution at steady state in nude mouse plasma at 1 mg/kg, iv after 24 hrs; type: ADME, organism-based; set-up: dose 1 mg/kg, route intravenous; details: read-out: Vdss
[30] = Ratio of AUC (0 to infinity) in brain to AUC (0 to infinity) in plasma of nude mouse at 5 mg/kg, po after 24 hrs; type: ADME, organism-based; set-up: dose 5 mg/kg, route oral; details: read-out: Ratio AUC
[31] = Antitumor activity against mouse Ptch+/- p53-/- medulloblastoma cells xenografted Harlan nu/nu mouse at 20 mg/kg, po qd administered after 7 days tumor implantation measured after 12 days relative to control; type: functional, Medulloblastoma cell
Protein smoothened [32] = target: T1, Protein smoothened; type: cell-based, TM3
Description: Inhibition of Smoothened receptor in mouse TM3 cells transfected with pTA-8xGli-Luc reporter gene assessed as inhibition of 25 nM 3-chloro-4,7-difluoro-N-(4-methoxy-3-(pyridin-4-yl)benzyl)-N-(4-(methylamino)cyclohexyl)benzo[b]thiophene-2-carboxamide-induced Hedgehog pathway activation by Gli shift assay

[33] = Tmax in nude mouse plasma at 5 mg/kg, po after 24 hrs; type: ADME, organism-based; set-up: dose 5 mg/kg, route oral
[34] = Antitumor activity against mouse Ptch+/- p53-/- medulloblastoma cells xenografted Harlan nu/nu mouse at 10 mg/kg, po bid administered after 7 days tumor implantation measured after 12 days relative to control; type: functional, Medulloblastoma cell
[35] = Antitumor activity against mouse Ptch+/- p53-/- medulloblastoma cells xenografted Harlan nu/nu mouse at 40 mg/kg, po qd administered after 7 days tumor implantation measured after 12 days relative to control; type: functional, Medulloblastoma cell

T1 sequence (P56726 whole entry): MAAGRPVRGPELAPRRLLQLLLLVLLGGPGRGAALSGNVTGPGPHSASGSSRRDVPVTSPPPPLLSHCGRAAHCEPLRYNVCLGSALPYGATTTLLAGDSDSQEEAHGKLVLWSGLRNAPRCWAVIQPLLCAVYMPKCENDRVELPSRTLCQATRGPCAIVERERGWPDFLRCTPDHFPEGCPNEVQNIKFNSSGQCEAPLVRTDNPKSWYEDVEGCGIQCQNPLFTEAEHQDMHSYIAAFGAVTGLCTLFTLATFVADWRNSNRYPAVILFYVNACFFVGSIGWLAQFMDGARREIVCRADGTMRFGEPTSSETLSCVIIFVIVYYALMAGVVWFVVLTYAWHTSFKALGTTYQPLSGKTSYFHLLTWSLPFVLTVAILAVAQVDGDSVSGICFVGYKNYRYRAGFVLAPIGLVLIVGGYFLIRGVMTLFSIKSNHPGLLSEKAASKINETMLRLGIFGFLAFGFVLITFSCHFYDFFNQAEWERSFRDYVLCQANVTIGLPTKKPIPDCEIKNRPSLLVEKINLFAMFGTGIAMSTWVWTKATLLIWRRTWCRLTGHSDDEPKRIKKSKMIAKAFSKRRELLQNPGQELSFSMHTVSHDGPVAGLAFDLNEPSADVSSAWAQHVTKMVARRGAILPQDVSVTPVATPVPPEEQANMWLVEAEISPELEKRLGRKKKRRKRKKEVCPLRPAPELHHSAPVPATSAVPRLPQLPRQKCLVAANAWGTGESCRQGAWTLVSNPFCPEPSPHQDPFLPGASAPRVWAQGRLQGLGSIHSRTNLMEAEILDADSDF
Chain of Protein smoothened (Homo sapiens, UniProt Q99835) (Q99835 whole entry): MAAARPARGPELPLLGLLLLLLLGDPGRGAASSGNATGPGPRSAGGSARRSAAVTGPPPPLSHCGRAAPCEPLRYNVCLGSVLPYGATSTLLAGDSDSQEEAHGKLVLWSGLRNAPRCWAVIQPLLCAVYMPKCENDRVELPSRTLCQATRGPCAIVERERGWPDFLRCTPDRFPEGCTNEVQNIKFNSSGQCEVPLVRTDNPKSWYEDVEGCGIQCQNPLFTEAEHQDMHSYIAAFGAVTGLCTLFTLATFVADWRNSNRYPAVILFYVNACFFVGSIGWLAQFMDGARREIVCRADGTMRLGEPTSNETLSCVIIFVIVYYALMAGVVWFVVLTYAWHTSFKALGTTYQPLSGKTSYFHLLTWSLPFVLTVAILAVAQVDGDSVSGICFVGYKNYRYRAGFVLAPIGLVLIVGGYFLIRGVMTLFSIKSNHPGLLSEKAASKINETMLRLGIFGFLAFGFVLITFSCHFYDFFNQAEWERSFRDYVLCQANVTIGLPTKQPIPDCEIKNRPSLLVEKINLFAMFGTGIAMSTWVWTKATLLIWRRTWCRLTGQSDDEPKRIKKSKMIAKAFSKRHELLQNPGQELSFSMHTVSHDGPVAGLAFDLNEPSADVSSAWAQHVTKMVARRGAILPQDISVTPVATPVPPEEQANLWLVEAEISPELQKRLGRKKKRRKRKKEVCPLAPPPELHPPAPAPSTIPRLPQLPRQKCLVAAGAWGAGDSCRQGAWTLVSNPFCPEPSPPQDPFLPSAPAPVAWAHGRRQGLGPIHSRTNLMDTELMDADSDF

QH (Mus musculus [3]): 90 mL/min/kg
AUC(0-inf) [6]: 8.82 µM·h
Activity (Mus musculus [7]): 0.7 L/kg
AUC(0-inf) [8]: 26.5 µM·h
half-life [9]: 31.8 min
Cmax [10]: 2.39 µM
Kp at 24 h [13]: 0.15
IC50 (Protein smoothened [15]): 8 nM
Cmax [18]: 15.7 µM
Tmax [19]: 15 min
AUC(0-inf) [20]: 7.23 µM·h
IC50 (Protein smoothened [21]): 2.7 nM
bioavailability [25]: 73%
IC50 (Protein smoothened [26]): 5 nM
clearance [28]: 5.24 mL/min/kg
Vd [29]: 0.2 L/kg
Kp at 24 h [30]: 0.33
IC50 (Protein smoothened [32]): 35 nM
Tmax [33]: 15 min
SMILES: CC(C)(O)c1ccc(N2CCN(c3nnc(Cc4ccccc4)c4ccccc34)CC2)nc1
Activity (Mus musculus [1]): Non-toxic
Activity (Mus musculus [2]): Non-toxic
Activity (Medulloblastoma cell [4]): Dose-dependent effect
Activity (Mus musculus [5]): Non-toxic
Activity (Medulloblastoma cell [11]): Dose-dependent effect
T/C [12]: 69%
Activity (Mus musculus [14]): Non-toxic
T/C [16]: 71%
T/C [17]: 80%
Activity (Medulloblastoma cell [22]): tde
T/C [23]: 77%
T/C [24]: 15%
Activity (Medulloblastoma cell [27]): tde
T/C [31]: 45%
T/C [34]: 40%
T/C [35]: 19%
